In patent US6649201B2, “Eggshell derived monocalcium and dicalcium phosphate” (Board of Regents of University of Nebraska, priority 2001, dated 2003):

Experiment: 21-day starter chick feeding study: relative bioavailability of phosphate sources (slope ratio assay)
Settings: in vivo
Description: (CDP) source in starter chick diets. […] Each dietary treatment was replicated six times with eleven chicks per pen during a 21-day experimental period. […] A slope ratio assay using linear regression analysis was used to determine relative bioavailabilities.

## eggshell derived monocalcium phosphate [EDMCP]
  availability of the phosphate fraction to the animal vs currently available commercial products: more available
